Measured values taken from paper PMC7206119, “RIP1 inhibition blocks inflammatory diseases but not tumor growth or metastases” (Cell Death and Differentiation, 2019).

Tests used:
Experiment in all cases: biochemical
Set-up in all cases: DiscoverX kinase panel, active-site competition binding (KINOMEscan type), percent of control at one concentration
Conditions in all cases: competition binding, percent of control
PAK6 = PAK6 (Homo sapiens, UniProt Q9NQU5)
MST3 = biological target: T1, MST3 (Homo sapiens, UniProt Q9Y6E0)
T1 construct: gene STK24

CHEK1 = CHEK1 (Homo sapiens, UniProt O14757)
[1] = biological target: T2, ABL1(Q252H)-nonphosphorylated (Homo sapiens, UniProt P00519, Q252H)
T2 construct: nonphosphorylated

KIT(D816H) = KIT(D816H) (Homo sapiens, UniProt P10721, D816H)
FLT3(R834Q) = FLT3(R834Q) (Homo sapiens, UniProt P36888, R834Q)
RIPK4 = RIPK4 (Homo sapiens, UniProt P57078)
MLCK = biological target: T3, MLCK (Homo sapiens, UniProt Q32MK0)
T3 construct: gene MYLK3

p38-gamma = biological target: T4, p38-gamma (Homo sapiens, UniProt P53778)
T4 construct: gene MAPK12

RET(V804M) = RET(V804M) (Homo sapiens, UniProt P07949, V804M)
DLK = biological target: T5, DLK (Homo sapiens, UniProt Q12852)
T5 construct: gene MAP3K12

HIPK3 = HIPK3 (Homo sapiens, UniProt Q9H422)
TAOK3 = TAOK3 (Homo sapiens, UniProt Q9H2K8)
MAP4K2 = MAP4K2 (Homo sapiens, UniProt Q12851)
CSF1R = CSF1R (Homo sapiens, UniProt P07333)
[2] = biological target: T6, RPS6KA4(Kin.Dom.2-C-terminal) (Homo sapiens, UniProt O75676)
T6 construct: Kin.Dom.2-C-terminal

ACVR2B = ACVR2B (Homo sapiens, UniProt Q13705)
CDK11 = biological target: T7, CDK11 (Homo sapiens, UniProt Q9BWU1)
T7 construct: gene CDK19

EGFR(L858R) = EGFR(L858R) (Homo sapiens, UniProt P00533, L858R)
QSK = biological target: T8, QSK (Homo sapiens, UniProt Q9Y2K2)
T8 construct: gene SIK3

MAPKAPK2 = MAPKAPK2 (Homo sapiens, UniProt P49137)
Sequence of MAPKAPK2 (P49137 whole entry): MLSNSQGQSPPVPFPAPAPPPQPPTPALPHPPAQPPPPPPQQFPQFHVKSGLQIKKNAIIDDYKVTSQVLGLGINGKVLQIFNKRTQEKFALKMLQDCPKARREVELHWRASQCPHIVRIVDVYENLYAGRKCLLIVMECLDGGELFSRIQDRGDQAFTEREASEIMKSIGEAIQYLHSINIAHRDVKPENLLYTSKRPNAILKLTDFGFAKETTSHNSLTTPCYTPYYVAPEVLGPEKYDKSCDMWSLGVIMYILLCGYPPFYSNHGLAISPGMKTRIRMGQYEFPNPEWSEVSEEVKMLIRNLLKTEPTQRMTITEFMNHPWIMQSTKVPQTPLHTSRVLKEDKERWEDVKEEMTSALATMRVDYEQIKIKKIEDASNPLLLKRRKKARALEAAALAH

Sequence of PAK6 (Q9NQU5 whole entry): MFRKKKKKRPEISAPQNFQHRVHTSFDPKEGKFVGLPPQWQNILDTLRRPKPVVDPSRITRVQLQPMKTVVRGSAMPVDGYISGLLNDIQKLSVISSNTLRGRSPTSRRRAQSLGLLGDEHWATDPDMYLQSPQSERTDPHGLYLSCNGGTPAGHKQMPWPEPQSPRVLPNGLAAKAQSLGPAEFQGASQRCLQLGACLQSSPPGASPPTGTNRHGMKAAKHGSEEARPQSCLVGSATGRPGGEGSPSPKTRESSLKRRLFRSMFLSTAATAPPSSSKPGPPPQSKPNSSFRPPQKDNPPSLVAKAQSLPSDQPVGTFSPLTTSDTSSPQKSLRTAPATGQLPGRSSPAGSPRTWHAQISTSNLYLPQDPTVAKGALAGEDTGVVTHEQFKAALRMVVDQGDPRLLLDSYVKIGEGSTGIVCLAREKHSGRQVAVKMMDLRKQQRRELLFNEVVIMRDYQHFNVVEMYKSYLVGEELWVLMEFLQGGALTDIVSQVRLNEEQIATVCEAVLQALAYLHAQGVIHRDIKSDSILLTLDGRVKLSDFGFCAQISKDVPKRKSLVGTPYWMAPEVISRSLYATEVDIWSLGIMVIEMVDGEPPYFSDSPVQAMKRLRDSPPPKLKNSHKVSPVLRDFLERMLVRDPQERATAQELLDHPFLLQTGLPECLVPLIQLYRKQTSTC
T3 sequence (Q32MK0 whole entry): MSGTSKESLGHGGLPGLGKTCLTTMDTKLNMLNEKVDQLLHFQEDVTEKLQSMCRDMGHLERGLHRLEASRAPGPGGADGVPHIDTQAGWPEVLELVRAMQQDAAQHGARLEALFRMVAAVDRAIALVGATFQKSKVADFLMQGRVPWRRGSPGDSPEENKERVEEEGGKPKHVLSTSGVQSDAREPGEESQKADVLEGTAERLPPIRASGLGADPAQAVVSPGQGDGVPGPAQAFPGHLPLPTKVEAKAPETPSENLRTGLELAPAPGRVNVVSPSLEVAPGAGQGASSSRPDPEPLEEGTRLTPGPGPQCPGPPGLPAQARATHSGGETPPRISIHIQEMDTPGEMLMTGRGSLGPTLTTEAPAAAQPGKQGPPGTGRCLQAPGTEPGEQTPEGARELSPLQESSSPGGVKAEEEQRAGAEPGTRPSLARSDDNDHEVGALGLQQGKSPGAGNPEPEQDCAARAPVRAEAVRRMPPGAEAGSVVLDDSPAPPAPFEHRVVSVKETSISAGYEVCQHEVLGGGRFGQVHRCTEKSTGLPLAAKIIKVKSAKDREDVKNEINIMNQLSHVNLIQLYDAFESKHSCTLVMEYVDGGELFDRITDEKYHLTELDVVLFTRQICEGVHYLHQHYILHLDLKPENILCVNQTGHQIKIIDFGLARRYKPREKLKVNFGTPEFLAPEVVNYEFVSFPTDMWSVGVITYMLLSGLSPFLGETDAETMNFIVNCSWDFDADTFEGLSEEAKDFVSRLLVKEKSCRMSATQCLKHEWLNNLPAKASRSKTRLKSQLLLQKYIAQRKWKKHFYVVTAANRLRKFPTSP
Sequence of ACVR2B (Q13705 whole entry): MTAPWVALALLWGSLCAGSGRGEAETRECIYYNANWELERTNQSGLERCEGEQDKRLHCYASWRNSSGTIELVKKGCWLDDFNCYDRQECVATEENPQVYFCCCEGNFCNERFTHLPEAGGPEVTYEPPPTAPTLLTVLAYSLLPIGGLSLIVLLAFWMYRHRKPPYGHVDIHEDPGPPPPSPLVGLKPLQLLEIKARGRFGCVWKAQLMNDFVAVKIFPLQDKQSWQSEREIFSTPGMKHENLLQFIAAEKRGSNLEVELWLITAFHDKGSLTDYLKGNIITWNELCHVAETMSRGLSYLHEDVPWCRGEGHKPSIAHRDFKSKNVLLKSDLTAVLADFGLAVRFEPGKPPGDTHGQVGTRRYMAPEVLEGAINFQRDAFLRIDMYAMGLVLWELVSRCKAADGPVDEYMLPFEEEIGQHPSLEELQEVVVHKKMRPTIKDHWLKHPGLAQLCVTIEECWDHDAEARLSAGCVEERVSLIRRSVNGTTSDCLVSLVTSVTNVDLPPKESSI
T7 sequence (Q9BWU1 whole entry): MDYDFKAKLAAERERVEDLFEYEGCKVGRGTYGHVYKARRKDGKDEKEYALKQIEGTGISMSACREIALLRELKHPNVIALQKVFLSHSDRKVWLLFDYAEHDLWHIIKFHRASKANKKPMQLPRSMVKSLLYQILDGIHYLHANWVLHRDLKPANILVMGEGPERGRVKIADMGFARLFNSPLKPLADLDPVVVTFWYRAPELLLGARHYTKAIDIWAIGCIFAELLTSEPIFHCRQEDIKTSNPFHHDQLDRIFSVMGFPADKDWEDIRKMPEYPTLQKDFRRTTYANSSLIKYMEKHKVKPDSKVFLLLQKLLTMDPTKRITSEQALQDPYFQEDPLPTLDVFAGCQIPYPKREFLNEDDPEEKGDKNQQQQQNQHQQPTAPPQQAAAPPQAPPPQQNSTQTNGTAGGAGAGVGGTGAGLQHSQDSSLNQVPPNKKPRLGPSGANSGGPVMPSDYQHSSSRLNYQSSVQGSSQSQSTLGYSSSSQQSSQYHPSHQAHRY
T1 sequence (Q9Y6E0 whole entry): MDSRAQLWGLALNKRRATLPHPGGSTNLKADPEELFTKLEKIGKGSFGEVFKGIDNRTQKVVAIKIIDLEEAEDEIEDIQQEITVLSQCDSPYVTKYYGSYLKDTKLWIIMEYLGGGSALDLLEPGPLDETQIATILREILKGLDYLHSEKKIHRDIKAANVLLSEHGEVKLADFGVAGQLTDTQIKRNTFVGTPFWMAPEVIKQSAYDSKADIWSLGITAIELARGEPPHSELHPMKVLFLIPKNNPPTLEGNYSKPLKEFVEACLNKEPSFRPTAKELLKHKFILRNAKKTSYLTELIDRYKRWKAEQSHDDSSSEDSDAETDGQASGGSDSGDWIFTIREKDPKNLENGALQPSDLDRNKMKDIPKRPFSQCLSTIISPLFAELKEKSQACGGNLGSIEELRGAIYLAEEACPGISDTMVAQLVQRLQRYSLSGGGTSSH
Sequence of EGFR(L858R) (P00533 whole entry L858R): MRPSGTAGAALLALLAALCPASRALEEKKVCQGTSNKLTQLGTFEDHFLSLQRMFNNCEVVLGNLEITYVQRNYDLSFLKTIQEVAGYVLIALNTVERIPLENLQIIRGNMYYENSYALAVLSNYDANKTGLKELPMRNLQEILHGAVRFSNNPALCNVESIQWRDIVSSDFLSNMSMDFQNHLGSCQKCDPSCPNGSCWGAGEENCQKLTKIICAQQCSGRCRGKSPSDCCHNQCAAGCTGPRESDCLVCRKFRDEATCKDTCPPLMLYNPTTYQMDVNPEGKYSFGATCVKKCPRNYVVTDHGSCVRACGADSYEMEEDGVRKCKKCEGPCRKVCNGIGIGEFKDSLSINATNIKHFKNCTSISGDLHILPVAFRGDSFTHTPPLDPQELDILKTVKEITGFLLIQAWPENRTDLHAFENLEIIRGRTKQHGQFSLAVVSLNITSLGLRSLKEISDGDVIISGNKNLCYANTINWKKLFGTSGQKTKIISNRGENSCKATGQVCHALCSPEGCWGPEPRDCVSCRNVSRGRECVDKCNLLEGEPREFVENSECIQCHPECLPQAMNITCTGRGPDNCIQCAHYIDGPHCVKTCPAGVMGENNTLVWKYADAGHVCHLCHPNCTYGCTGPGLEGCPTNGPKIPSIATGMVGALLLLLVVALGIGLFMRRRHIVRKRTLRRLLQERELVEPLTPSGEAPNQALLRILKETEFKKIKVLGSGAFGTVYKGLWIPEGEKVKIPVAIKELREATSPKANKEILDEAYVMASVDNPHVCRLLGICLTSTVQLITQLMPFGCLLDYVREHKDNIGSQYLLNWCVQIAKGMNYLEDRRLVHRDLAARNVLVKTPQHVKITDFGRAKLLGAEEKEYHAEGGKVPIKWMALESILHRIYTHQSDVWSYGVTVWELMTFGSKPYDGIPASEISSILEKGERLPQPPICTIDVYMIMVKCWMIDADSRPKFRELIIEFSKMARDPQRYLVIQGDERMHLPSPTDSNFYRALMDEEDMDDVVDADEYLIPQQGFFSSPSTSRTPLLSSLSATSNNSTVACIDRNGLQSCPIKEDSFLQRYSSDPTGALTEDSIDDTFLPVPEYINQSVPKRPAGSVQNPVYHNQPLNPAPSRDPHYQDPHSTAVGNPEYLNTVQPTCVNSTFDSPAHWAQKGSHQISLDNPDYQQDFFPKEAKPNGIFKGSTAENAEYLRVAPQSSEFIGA
T4 sequence (P53778 whole entry): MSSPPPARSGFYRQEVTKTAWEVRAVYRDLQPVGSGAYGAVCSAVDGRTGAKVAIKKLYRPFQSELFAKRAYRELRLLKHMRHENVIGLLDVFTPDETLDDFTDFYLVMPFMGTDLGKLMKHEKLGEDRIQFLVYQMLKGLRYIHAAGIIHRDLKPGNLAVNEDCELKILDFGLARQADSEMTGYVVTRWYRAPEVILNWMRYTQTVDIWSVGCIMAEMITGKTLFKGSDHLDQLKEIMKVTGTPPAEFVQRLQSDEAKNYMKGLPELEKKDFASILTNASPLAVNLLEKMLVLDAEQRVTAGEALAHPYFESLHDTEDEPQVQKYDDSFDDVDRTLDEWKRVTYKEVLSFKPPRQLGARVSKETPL

Question: Which remaining binding at 10 µM (PAK6) does the source give for `COc1cc2c(cn1)N(C)C(=O)[C@@H](NC(=O)c1nc3n(n1)[C@H](c1ccccc1)CC3)CC2` [GNE684, (S)-N-((S)-7-methoxy-1-methyl-2-oxo-2,3,4,5-tetrahydro-1H-pyrido[3,4-b]azepin-3-yl)-5-phenyl-6,7-dihydro-5H-pyrrolo[1,2-b][1,2,4]triazole-2-carboxamide] here?
Answer: 100%

Question: What about the remaining binding at 10 µM (MST3) of the same compound?
Answer: 99%

Question: And the remaining binding at 10 µM (CHEK1)?
Answer: 100%

Question: And the remaining binding at 10 µM [1]?
Answer: 68%

Question: And the remaining binding at 10 µM (KIT(D816H))?
Answer: 100%

Question: What about the remaining binding at 10 µM (FLT3(R834Q)) of the same compound?
Answer: 100%

Question: And the remaining binding at 10 µM (RIPK4)?
Answer: 100%

Question: What about the remaining binding at 10 µM (MLCK) of the same compound?
Answer: 66%

Question: What about the remaining binding at 10 µM (p38-gamma) of the same compound?
Answer: 98%

Question: And the remaining binding at 10 µM (RET(V804M))?
Answer: 100%

Question: What about the remaining binding at 10 µM (DLK) of the same compound?
Answer: 100%

Question: What about the remaining binding at 10 µM (HIPK3) of the same compound?
Answer: 100%

Question: And the remaining binding at 10 µM (TAOK3)?
Answer: 60%

Question: What about the remaining binding at 10 µM (MAP4K2) of the same compound?
Answer: 100%

Question: What about the remaining binding at 10 µM (CSF1R) of the same compound?
Answer: 100%

Question: What about the remaining binding at 10 µM [2] of the same compound?
Answer: 100%

Question: What about the remaining binding at 10 µM (ACVR2B) of the same compound?
Answer: 94%

Question: And the remaining binding at 10 µM (CDK11)?
Answer: 81%

Question: What about the remaining binding at 10 µM (EGFR(L858R)) of the same compound?
Answer: 100%

Question: And the remaining binding at 10 µM (QSK)?
Answer: 97%

Question: What about the remaining binding at 10 µM (MAPKAPK2) of the same compound?
Answer: 100%
